In patent EP0973746B1, “SUBSTITUTED 3-CYANO QUINOLINES” (Wyeth Holdings Corporation, priority 1997, dated 1998):
≈ marks a conversion by molar mass, not a printed value. Read-outs that look alike come from different tables or passages of the source.

Columns and labels:
A431 [1] = test: Inhibition of cell growth by incorporation of [3H]-thymidine, A431; format: cell-based, human; details: Homo sapiens, A-431, read-out: IC50 A431
Procedure: Representative compounds of this invention were evaluated for their ability to inhibit the growth of the cell lines described below in vitro. The inhibition is quantitated by measuring the decrease in the incorporation of radio-labeled thymidine when the cells are grown in the presence of the inhibitor. […] Cells were routinely grown in a humidified incubator in 5% CO2 in air.
Cells were seeded at 10,000 cells/well in 96 well plates in complete media and allowed to grow to log phase. At this stage the complete media was replaced with media containing 0.5% FBS (for cells growing in 10% FBS) or media lacking epidermal growth factor (EGF) (for cells growing in serum free media). […] Media with test compound was then removed and complete media was added back. The cells were allowed to grow for 18 hours. This is followed by incubation in [^3H]thymidine (1mCi/ml in serum/EGF media) for 4 hours. Cells were lysed in 0.5 M NaOH for at least 30 min at 37°C and radioactivity analyzed.
The % inhibition of the compound evaluated was determined for at least three different concentrations and the IC50 value evaluated from the dose response curve. […] CPM(control) is in units of counts per minute and is a number expressing the amount of [^3H]thymidine incorporated onto the DNA when cells are grown in the absence of test compound as measured by liquid scintillation counting.

HTB161 = test: Inhibition of cancer cell growth as measured by cell number, HTB161; format: cell-based; details: Homo sapiens, 48 h, read-out: IC50 HTB161
A27805 = test: Inhibition of cancer cell growth as measured by cell number, A27805; format: cell-based; details: Homo sapiens, 48 h, read-out: IC50 A27805
A2780DDP = test: Inhibition of cancer cell growth as measured by cell number, A2780DDP; format: cell-based; details: Homo sapiens, 48 h, read-out: IC50 A2780DDP
MIP = test: Inhibition of cancer cell growth as measured by cell number, MIP; format: cell-based; details: Homo sapiens, read-out: IC50 MIP
SW620 = test: Inhibition of cancer cell growth as measured by cell number, SW620; format: cell-based, human; details: Homo sapiens, SW-620, 48 h, read-out: IC50 SW620, cell number, Sulforhodamine B, 48 hours exposure; Table 4;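 note: SW620 was included as a cell line with little or no EGFR or HER2/neu expression, in contrast to receptor-overexpressing lines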
Source text: (§1) The cell lines were chosen since they overexpressed epidermal growth factor receptor (EGFR) (i.e. A431) or HER2/neu (SKBR3), or had little to no expression of the these receptors (SW620, LOX, MCF7).

COLO205 = test: Inhibition of cancer cell growth as measured by cell number, COLO205; format: cell-based; details: Homo sapiens, COLO 205, 48 h, read-out: IC50 COLO205
CX1 = test: Inhibition of cancer cell growth as measured by cell number, CX1; format: cell-based; details: Homo sapiens, CX-1, 48 h, read-out: IC50 CX1
CACO2 = test: Inhibition of cancer cell growth as measured by cell number, CACO2; format: cell-based; details: Homo sapiens, Caco-2, 48 h, read-out: IC50 CACO2
HCT15 = test: Inhibition of cancer cell growth as measured by cell number, HCT15; format: cell-based; details: Homo sapiens, HCT-15, 48 h, read-out: IC50 HCT15
LS174T = test: Inhibition of cancer cell growth as measured by cell number, LS174T; format: cell-based; details: Homo sapiens, 48 h, read-out: IC50 LS174T
SW948 = test: Inhibition of cancer cell growth as measured by cell number, SW948; format: cell-based; details: Homo sapiens, SW948, 48 h, read-out: IC50 SW948
CCL228 = test: Inhibition of cancer cell growth as measured by cell number, CCL228; format: cell-based; details: Homo sapiens, 48 h, read-out: IC50 CCL228
MCF7 = test: Inhibition of cancer cell growth as measured by cell number, MCF7; format: cell-based, human; details: Homo sapiens, MCF7, 48 h, read-out: IC50 MCF7, cell number, Sulforhodamine B, 48 hours exposure; Table 5;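 note: MCF7 was included as a line with little or no EGFR or HER2/neu expression, in contrast to the receptor-overexpressing lines of the panel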
Source text: as §1

B7474 = test: Inhibition of cancer cell growth as measured by cell number, B7474; format: cell-based; details: Homo sapiens, 48 h, read-out: IC50 B7474
T47D = test: Inhibition of cancer cell growth as measured by cell number, T47D; format: cell-based; details: Homo sapiens, 48 h, read-out: IC50 T47D
LX1 = test: Inhibition of cancer cell growth as measured by cell number, LX1; format: cell-based; details: Homo sapiens, LX-1, 48 h, read-out: IC50 LX1
A549 = test: Inhibition of cancer cell growth as measured by cell number, A549; format: cell-based; details: Homo sapiens, A549, 48 h, read-out: IC50 A549
LOX = test: Inhibition of cancer cell growth as measured by cell number, LOX; format: cell-based, human; details: Homo sapiens, LOX, 48 h, read-out: IC50 LOX, cell number, Sulforhodamine B, 48 hours exposure; Table 6;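 note: LOX cells served as a line with low or absent EGFR and HER2/neu expression, in contrast to receptor-overexpressing lines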
Source text: as §1

A431 [2] = test: Inhibition of cancer cell growth as measured by cell number, A431; format: cell-based, human; details: Homo sapiens, A-431, 48 h, read-out: IC50 A431, cell number, Sulforhodamine B, 48 hours exposure; Table 6;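 note: human A431 line, picked because it overexpresses epidermal growth factor receptor (EGFR)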
Source text: as §1

NEC = test: Inhibition of cancer cell growth as measured by cell number, NEC; format: cell-based; details: Homo sapiens, 48 h, read-out: IC50 NEC
DU145 = test: Inhibition of cancer cell growth as measured by cell number, DU145; format: cell-based; details: Homo sapiens, DU-145, 48 h, read-out: IC50 DU145
PC3 = test: Inhibition of cancer cell growth as measured by cell number, PC3; format: cell-based; details: Homo sapiens, PC-3, 48 h, read-out: IC50 PC3
LNCAP = test: Inhibition of cancer cell growth as measured by cell number, LNCAP; format: cell-based; details: Homo sapiens, 48 h, read-out: IC50 LNCAP
HL60 = test: Inhibition of cancer cell growth as measured by cell number, HL60; format: cell-based; details: Homo sapiens, HL-60, 48 h, read-out: IC50 HL60
CCRF-CFM = test: Inhibition of cancer cell growth as measured by cell number, CCRF-CFM; format: cell-based; details: Homo sapiens, 48 h, read-out: IC50 CCRF-CFM
SKBR3 = test: Inhibition of cancer cell growth as measured by cell number, SKBR3; format: cell-based, human; details: Homo sapiens, SK-BR-3, 48 h, read-out: IC50 SKBR3, cell number, Sulforhodamine B, 48 hours exposure; Table 7;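 note: SK-BR-3 cells were selected as a line overexpressing HER2/neu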
Source text: as §1

[3] = target: recombinant human MEK 1 (MAPKK) and recombinant human ERK2 (MAPK); test: Mitogen Activated Protein Kinase (MAPK) assay, two component coupled MEK 1 / ERK2; format: biochemical; details: separate entries for the same compound = evaluated more than one time;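 note: MEK 1-activated ERK2 phosphorylates MBP or Myc peptide with 33P-ATP, filter capture and scintillation counting, inhibitor preincubated with ERK2 30 min at 0 °C, inhibition relative to uninhibited control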
NHEK = test: Inhibition of cell growth by incorporation of [3H]-thymidine, NHEK; format: cell-based, human; details: Homo sapiens, read-out: IC50 NHEK
[4] = target: epidermal growth factor receptor kinase (Homo sapiens, UniProt P00533); test: biochemical
epidermal growth factor receptor kinase, sequence (P00533 25-1210): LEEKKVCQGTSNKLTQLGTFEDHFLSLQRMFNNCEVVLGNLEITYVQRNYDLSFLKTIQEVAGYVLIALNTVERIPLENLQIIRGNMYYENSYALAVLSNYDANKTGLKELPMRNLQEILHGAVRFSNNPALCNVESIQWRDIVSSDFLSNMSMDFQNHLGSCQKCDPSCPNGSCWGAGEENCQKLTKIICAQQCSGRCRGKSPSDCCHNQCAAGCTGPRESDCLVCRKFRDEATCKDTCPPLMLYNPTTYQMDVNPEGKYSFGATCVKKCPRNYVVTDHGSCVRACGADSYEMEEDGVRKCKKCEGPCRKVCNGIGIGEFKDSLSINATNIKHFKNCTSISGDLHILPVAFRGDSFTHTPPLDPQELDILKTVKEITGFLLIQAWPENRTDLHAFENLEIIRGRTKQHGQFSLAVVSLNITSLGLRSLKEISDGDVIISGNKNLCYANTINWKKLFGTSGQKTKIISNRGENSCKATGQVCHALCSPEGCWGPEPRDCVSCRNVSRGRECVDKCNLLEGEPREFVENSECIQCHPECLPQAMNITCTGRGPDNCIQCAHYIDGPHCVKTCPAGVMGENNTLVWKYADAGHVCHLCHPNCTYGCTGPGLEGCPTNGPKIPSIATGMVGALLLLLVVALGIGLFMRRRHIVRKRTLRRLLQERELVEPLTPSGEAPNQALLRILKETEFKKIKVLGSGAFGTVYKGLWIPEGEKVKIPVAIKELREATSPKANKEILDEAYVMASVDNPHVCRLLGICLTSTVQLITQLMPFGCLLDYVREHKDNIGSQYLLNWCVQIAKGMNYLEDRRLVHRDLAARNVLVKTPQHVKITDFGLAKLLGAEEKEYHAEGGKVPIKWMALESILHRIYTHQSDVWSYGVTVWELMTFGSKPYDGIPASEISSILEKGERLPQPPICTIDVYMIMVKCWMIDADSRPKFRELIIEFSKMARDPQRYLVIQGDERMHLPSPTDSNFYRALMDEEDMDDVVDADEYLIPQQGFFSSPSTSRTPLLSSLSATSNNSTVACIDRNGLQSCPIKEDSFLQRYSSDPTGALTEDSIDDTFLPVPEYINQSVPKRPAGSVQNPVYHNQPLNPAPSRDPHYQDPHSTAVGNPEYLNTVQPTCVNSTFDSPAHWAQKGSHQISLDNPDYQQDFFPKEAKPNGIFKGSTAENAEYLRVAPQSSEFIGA
Procedure: The enzyme was obtained as a membrane extract of A431 cells (American Type Culture Collection, Rockville, MD). A431 cells were grown in T175 flasks to 80% confluency. The cells were washed twice with phosphate buffered saline (PBS) without Ca^2+. Flasks were rotated for 1.5 hours in 20 ml PBS with 1.0 mM ethylenediaminetetraacetic acid (EDTA) at room temperature and centrifuged at 600g for 10 minutes. The cells were solubilized in 1 ml per 5 x 10^6 cells of cold lysis buffer {10mM 4-(2-hydroxyethyl)-1-piperazineethane-sulfonic acid (HEPES), pH 7.6, 10 mM NaCl, 2mM EDTA, 1mM phenylmethyl-sulfonyl-fluoride (PMSF), 10 mg/ml aprotinin, 10 mg/ml leupeptin, 0.1 mM sodium orthovanadate} in a Dounce homogenizer with 10 strokes on ice. The lysate was centrifuged at 600g for 10 minutes first to clear cell debris and the supernatant further centrifuged at 100,000 g for 30 min at 4°C. The membrane pellet was suspended in 1.5 ml HNG buffer (50 mM HEPES, pH 7.6, 125 mM NaCl, 10% glycerol). The membrane extract was divided into aliquots, immediately frozen in liquid nitrogen and stored at -70°C.
Compounds to be evaluated were made into 10 mg/ml stock solutions in 100% dimethylsulfoxide (DMSO). Prior to experiment, stock solutions were diluted to 500 mM with buffer (30 mM Hepes pH 7.4) and then serially diluted to the desired concentration.
An aliquot of the A431 membrane extract (10 mg/ml) was diluted in 30 mM HEPES (pH 7.4) to give a protein concentration of 50 ug/ml. […] To this was added the ^33p-ATP (10 mCi/ml) diluted 1:10 in assay buffer along with the substrate peptide at a concentration of 0.5 mM (control reactions get no test compound) and the reaction was allowed to proceed for 30 min at 30°C. The reaction was stopped with 10% TCA and left on ice for at least 10 min after which tubes were microcentrifuged at full speed for 15 min. The a portion of the supernatants were spotted on P81 phosphocellulose discs and washed twice in 1% acetic acid then water for 5 min each followed by scintillation counting. […] The % inhibition of the test compound was determined for at least three different concentrations and the IC50 value was evaluated from the dose response curve. […] CPM(control) is in units of counts per minute and was a number expressing the amount of radiolabeled ATP (g-^33P) incorporated into the RR-SRC peptide substrate by the enzyme after 30 minutes at 30°C in the absence of test compound as measured by liquid scintillation counting. The CPM values were corrected for the background counts produced by ATP in the absence of the enzymatic reaction. The IC50 values reported in TABLE 1 are averages of the number of tests conducted.

Row | Structure (SMILES) | IC50 (HTB161) [µg/mL] | IC50 (A27805) [µg/mL] | IC50 (A2780DDP) [µg/mL] | IC50 (SW620) [µg/mL] | IC50 (COLO205) [µg/mL] | IC50 (CX1) [µg/mL] | IC50 (CACO2) [µg/mL] | IC50 (HCT15) [µg/mL] | IC50 (LS174T) [µg/mL] | IC50 (SW948) [µg/mL] | IC50 (CCL228) [µg/mL] | IC50 (MCF7) [µg/mL] | IC50 (B7474) [µg/mL] | IC50 (T47D) [µg/mL] | IC50 (LX1) [µg/mL] | IC50 (A549) [µg/mL] | IC50 (LOX) [µg/mL] | IC50 (A431 [2]) [µg/mL] | IC50 (NEC) [µg/mL] | IC50 (DU145) [µg/mL] | further results
1 | N#Cc1cnc2ccc(N)cc2c1Nc1cccc(Br)c1 [Example 14, 6-Amino-4-[(3-bromophenyl)amino]-3-quinolinecarbonitrile] | 1.79 (≈ 5.29 µM) | 3.59 (≈ 10.6 µM) | 5.92 (≈ 17.5 µM) | 88.8 (≈ 262 µM) | > 100 | 8.9 (≈ 26.2 µM) | 0.989 (≈ 2.91 µM) | 6.63 (≈ 19.5 µM) | 39.3 (≈ 116 µM) | > 100 | 39.4 (≈ 116 µM) | 80.7 (≈ 238 µM) | 20.6 (≈ 60.6 µM) | 7.39 (≈ 21.8 µM) | 69.6 (≈ 205 µM) | 7.68 (≈ 22.7 µM) | 2.81 (≈ 8.29 µM) | 1.5 (≈ 4.42 µM) | 8.28 (≈ 24.4 µM) | 0.91 (≈ 2.68 µM) | IC50 (A431 [1]): 0.1 µM; IC50 (MIP; cell number, Sulforhodamine B, 48 hours exposure, Table 4): 6.19 µg/mL (≈ 18.2 µM); IC50 (PC3): 41.2 µg/mL (≈ 122 µM); IC50 (LNCAP): 8.98 µg/mL (≈ 26.5 µM); IC50 (HL60): 4.04 µg/mL (≈ 11.9 µM); IC50 (CCRF-CFM): 7.6 µg/mL (≈ 22.4 µM); IC50 (SKBR3): 43.6 µg/mL (≈ 129 µM); IC50 [3]: > 100 µM
2 | CC#CC(=O)Nc1ccc2ncc(C#N)c(Nc3cccc(Br)c3)c2c1 [Example 15, N-[4-[(3-Bromophenyl)amino]-3-cyano-6-quinolinyl]-2-butynamide] | 33 (≈ 81.4 µM) | 33 (≈ 81.4 µM) | 33 (≈ 81.4 µM) | 33 (≈ 81.4 µM) | 33 (≈ 81.4 µM) | 33 (≈ 81.4 µM) | 2.41 (≈ 5.94 µM) | > 33 | > 33 | > 33 | > 33 | > 33 | > 33 | > 33 | > 33 | > 33 | > 33 | 22 (≈ 54.3 µM) | > 33 | 18 (≈ 44.4 µM) | IC50 (NHEK): 4 µM; IC50 (MIP; 48 h): 33 µg/mL (≈ 81.4 µM); IC50 (PC3): > 33 µg/mL; IC50 (LNCAP): > 33 µg/mL; IC50 (HL60): > 33 µg/mL; IC50 (CCRF-CFM): > 33 µg/mL; IC50 (SKBR3): > 33 µg/mL; IC50 [3]: > 100 µM; IC50 [4]: 0.0006 µM
